Test system: Mtb-infected mouse lungs
Experiment: Genome-wide lung transcriptome (microarray, IPA network/GO analysis) of Mtb-infected mice
Assay type: in vivo

CCOc1cc([C@@H](CS(C)(=O)=O)N2Cc3cccc(NC(=O)C4CC4)c3C2=O)ccc1OC [CC-11050, N-[2-[(1S)-1-(3-ethoxy-4-methoxyphenyl)-2-(methylsulfonyl)ethyl]-2,3-dihydro-3-oxo-1H-isoindol-4-yl]-(9Cl) cyclopropanecarboxamide]
1.158: ARF4 expression (TNF-a regulon network)
1.459: CDO1 expression (TNF-a regulon network)
1.328: EMP1 expression (TNF-a regulon network)
-1.412: DENND4A expression (TNF-a regulon network)
1.167: ACE expression (TNF-a regulon network)
-1.286: mir-15 expression (Lung inflammation network)
1.258: EGFR expression (TNF-a regulon network)
1.386: BHLHE40 expression (TNF-a regulon network)
1.114: BCL2L13 expression (TNF-a regulon network)
1.8298: ANGPTL4 expression (TNF-a regulon network)
1.206: ECH1 expression (TNF-a regulon network)
0: TIMP1 expression (Lung inflammation network) | TLR2 expression (Lung inflammation network) | TLR4 expression (Lung inflammation network) | TNFAIP8L2 expression (Lung inflammation network) | TNFRSF1B expression (Lung inflammation network) | TNFRSF4 expression (Lung inflammation network) | TNFRSF9 expression (Lung inflammation network) | TNFRSF25 expression (Lung inflammation network) | TNFSF15 expression (Lung inflammation network) | TOP2A expression (Lung inflammation network) | TRAF3IP2 expression (Lung inflammation network) | TRAF6 expression (Lung inflammation network) | TRPM2 expression (Lung inflammation network) | mir-19 expression (Lung inflammation network) | mir-25 expression (Lung inflammation network) | mir-27 expression (Lung inflammation network) | mir-30 expression (Lung inflammation network) | mir-155 expression (Lung inflammation network) | mir-181 expression (Lung inflammation network) | ABCC1 expression (TNF-a regulon network) | ABCC3 expression (TNF-a regulon network) | ABCD2 expression (TNF-a regulon network) | ABCG2 expression (TNF-a regulon network) | ABR expression (TNF-a regulon network) | ABTB2 expression (TNF-a regulon network) | ACADM expression (TNF-a regulon network) | ACOX1 expression (TNF-a regulon network) | ACSL1 expression (TNF-a regulon network) | ADAM8 expression (TNF-a regulon network) | ADAMTS5 expression (TNF-a regulon network) | ADIPOQ expression (TNF-a regulon network) | ADM expression (TNF-a regulon network) | ADRB3 expression (TNF-a regulon network) | AEBP1 expression (TNF-a regulon network) | AGT expression (TNF-a regulon network) | AK2 expression (TNF-a regulon network) | ALAD expression (TNF-a regulon network) | ALDH3A1 expression (TNF-a regulon network) | ALOX5 expression (TNF-a regulon network) | ANGPT2 expression (TNF-a regulon network) | ANXA11 expression (TNF-a regulon network) | AOC3 expression (TNF-a regulon network) | APLN expression (TNF-a regulon network) | APOBEC3B expression (TNF-a regulon network) | APOC2 expression (TNF-a regulon network) | AQP1 expression (TNF-a regulon network) | AQP7 expression (TNF-a regulon network) | ASGR1 expression (TNF-a regulon network) | ASS1 expression (TNF-a regulon network) | AVPR1A expression (TNF-a regulon network) | Abcb1b expression (TNF-a regulon network) | Aldh1a7 expression (TNF-a regulon network) | B2M expression (TNF-a regulon network) | B4GALT1 expression (TNF-a regulon network) | BCKDHA expression (TNF-a regulon network) | BCKDHB expression (TNF-a regulon network) | BCL2A1 expression (TNF-a regulon network) | BCL3 expression (TNF-a regulon network) | BGN expression (TNF-a regulon network) | BIRC2 expression (TNF-a regulon network) | BIRC3 expression (TNF-a regulon network) | BIRC5 expression (TNF-a regulon network) | BMP4 expression (TNF-a regulon network) | BMPR1A expression (TNF-a regulon network) | BST2 expression (TNF-a regulon network) | BTG1 expression (TNF-a regulon network) | BUB1B expression (TNF-a regulon network) | C3 expression (TNF-a regulon network) | C10orf10 expression (TNF-a regulon network) | C11orf82 expression (TNF-a regulon network) | C21orf33 expression (TNF-a regulon network) | CASP4 expression (TNF-a regulon network) | CASP6 expression (TNF-a regulon network) | CASP7 expression (TNF-a regulon network) | CAT expression (TNF-a regulon network) | CCL1 expression (TNF-a regulon network) | CCL4 expression (TNF-a regulon network) | CCL7 expression (TNF-a regulon network) | CCL19 expression (TNF-a regulon network) | CCL20 expression (TNF-a regulon network) | CCR8 expression (TNF-a regulon network) | CD3E expression (TNF-a regulon network) | CD5 expression (TNF-a regulon network) | CD28 expression (TNF-a regulon network) | CD40 expression (TNF-a regulon network) | CD69 expression (TNF-a regulon network) | CD80 expression (TNF-a regulon network) | CD82 expression (TNF-a regulon network) | CD83 expression (TNF-a regulon network) | CD247 expression (TNF-a regulon network) | CD274 expression (TNF-a regulon network) | CDC25C expression (TNF-a regulon network) | CDH2 expression (TNF-a regulon network) | CDH13 expression (TNF-a regulon network) | CDKN2C expression (TNF-a regulon network) | CEBPD expression (TNF-a regulon network) | CELF1 expression (TNF-a regulon network) | CFB expression (TNF-a regulon network) | CFD expression (TNF-a regulon network) | CFLAR expression (TNF-a regulon network) | CH25H expression (TNF-a regulon network) | CHST2 expression (TNF-a regulon network) | CHST4 expression (TNF-a regulon network) | CIB2 expression (TNF-a regulon network) | CIDEC expression (TNF-a regulon network) | CLDN11 expression (TNF-a regulon network) | CLEC4E expression (TNF-a regulon network) | CLEC5A expression (TNF-a regulon network) | COL1A2 expression (TNF-a regulon network) | COTL1 expression (TNF-a regulon network) | CPT2 expression (TNF-a regulon network) | CRADD expression (TNF-a regulon network) | CREM expression (TNF-a regulon network) | CSF1R expression (TNF-a regulon network) | CSF1 expression (TNF-a regulon network) | CST7 expression (TNF-a regulon network) | CTNNB1 expression (TNF-a regulon network) | CTSB expression (TNF-a regulon network) | CTSC expression (TNF-a regulon network) | CTSF expression (TNF-a regulon network) | CTSZ expression (TNF-a regulon network) | CX3CR1 expression (TNF-a regulon network) | CXCL2 expression (TNF-a regulon network) | CXCL6 expression (TNF-a regulon network) | CXCL9 expression (TNF-a regulon network) | CXCL10 expression (TNF-a regulon network) | CXCL11 expression (TNF-a regulon network) | CXCL13 expression (TNF-a regulon network) | CXCL16 expression (TNF-a regulon network) | CXCR2 expression (TNF-a regulon network) | CYBA expression (TNF-a regulon network) | CYP1A1 expression (TNF-a regulon network) | CYP2E1 expression (TNF-a regulon network) | CYP7B1 expression (TNF-a regulon network) | CYTH3 expression (TNF-a regulon network) | CYTIP expression (TNF-a regulon network) | DAG1 expression (TNF-a regulon network) | DAXX expression (TNF-a regulon network) | DBI expression (TNF-a regulon network) | DBT expression (TNF-a regulon network) | DCN expression (TNF-a regulon network) | DDX58 expression (TNF-a regulon network) | DHRS3 expression (TNF-a regulon network) | DNMT1 expression (TNF-a regulon network) | DPP4 expression (TNF-a regulon network) | DUSP2 expression (TNF-a regulon network) | DUSP5 expression (TNF-a regulon network) | DUSP14 expression (TNF-a regulon network) | EBI3 expression (TNF-a regulon network) | EDN1 expression (TNF-a regulon network) | EFNA1 expression (TNF-a regulon network) | EFNB2 expression (TNF-a regulon network) | EGR2 expression (TNF-a regulon network) | EIF2AK2 expression (TNF-a regulon network) | ENG expression (TNF-a regulon network) | ENPP3 expression (TNF-a regulon network)
1.211: CPT1A expression (TNF-a regulon network)

— paper PMC4911353, “Pharmacologic Inhibition of Host Phosphodiesterase-4 Improves Isoniazid-Mediated Clearance of Mycobacterium tuberculosis” (Frontiers in Immunology, 2016)
